Test results as given in patent US20100029704A1, “SALT OF NONSTEROIDAL ANTI-INFLAMMATORY DRUG AND ORGANIC AMINE COMPOUND AND USE THEREOF” (priority 2007, published 2010).
Counter-ions that a name gives are not always drawn.

Columns and labels:
[1] = room temperature; crystals were indomethacin:lidocain 2:1; cited from earlier work
[2] = Form of the salt on standing / long-term preservation; type: physicochemical
Procedure: First, a salt was produced using equimolar amounts of a carboxylic acid NSAID and organic amine. […] The obtained ionic liquid or crystals and the like were left standing, confirmed to be stable, and then the forms thereof were observed. This has clarified that the salt produced by the combination of NSAID and an organic amine compound may be a liquid (viscous liquid) or crystal at ambient temperature (25° C.).

[3] = Skin permeability test using isolated rat abdominal skin (Franz-type diffusion cell); conditions: accumulated up to 6 hours, 2.5 wt % as NSAID free acid in diethyl sebacate/propylene glycol, 32° C.
Procedure: An equimolar salt of NSAID and organic amine was dissolved in a mixture of diethyl sebacate and propylene glycol to give a solution preparation. For comparison, a solution preparation (control) of NSAID was prepared in the same manner.
As a receptor solution, saline-ethanol solution (9:1, 8 ml) was placed in an upright Franz-type diffusion cell (effective diffusion area: 1 cm^2), and the solution was stirred and maintained at 32° C. An isolated abdominal shaved skin of 6-week-old Wistar rat was applied to the Franz cell, and the prepared solution preparation (0.15 ml) was applied to the skin. A part (300 μL) of the receptor solution was taken at predetermined time intervals, the drug concentration in the receptor solution was measured by high performance liquid chromatography, and the drug permeation amount per 1 cm^2 rat skin was calculated.
Unless otherwise indicated, in the following Experimental Examples, the drug concentration of the solution preparation is 2.5 wt % as NSAID free acid, and the skin permeation amount is an accumulated amount (μg/cm^2) up to 6 hours.

[4] = Solubility of NSAID-eperisone salt and NSAID free acid in diethyl sebacate; type: physicochemical; conditions: for dissolution in diethyl sebacate (50 g): 5 g NSAID free acid or ionic liquid corresponding to 5 g NSAID, shaken at room temperature for 30 min; for amount (g) of diethyl sebacate necessary for dissolving NSAID (1 g): NSAID free acid; for amount (g) of diethyl sebacate necessary for dissolving NSAID (1 g) / amount (g) of diethyl sebacate necessary for dissolving an eperisone salt corresponding to NSAID (1 g): room temperature
Procedure: The solubility of an eperisone salt of NSAID, and a free acid of NSAID in diethyl sebacate widely used for external preparations was measured. […] The solutions were stood still and, when an undissolved matter was found, diethyl sebacate was further added, and the mixture was shaken.

**Q.** Which “stability of the ionic liquid when stood still” value [1] does the source give for `CCN(CC)CC(=O)Nc1c(C)cccc1C.COc1ccc2c(c1)c(CC(=O)O)c(C)n2C(=O)c1ccc(Cl)cc1` here?
**A.** crystals were gradually precipitated

**Q.** Which “form/note: crystallization during long-term preservation” value [2] does the source give for `CCN(CC)CC(=O)Nc1c(C)cccc1C.O=C(O)Cc1ccccc1Nc1c(Cl)cccc1Cl` [diclofenac-lidocain salt] here?
**A.** partial

**Q.** With `Cc1ccc(C(=O)C(C)CN2CCCCC2)cc1.O=C(O)Cc1ccccc1Nc1c(Cl)cccc1Cl` [diclofenac-tolperisone salt] as the compound, how does the diclofenac permeation amount [3] read?
**A.** 20.3 μg/cm^2

**Q.** With `COc1cccc(C2(O)CCCCC2CN(C)C)c1.O=C(O)Cc1ccccc1Nc1c(Cl)cccc1Cl` (stereo not shown) [diclofenac-tramadol salt] as the compound, how does the “form/note: crystallization during long-term preservation” value [2] read?
**A.** crystallized

**Q.** Which “dissolution in diethyl sebacate (50 g)” value [4] does the source give for `O=C(O)Cc1ccccc1Nc1c(Cl)cccc1Cl` [diclofenac] here?
**A.** not dissolved

**Q.** And the “amount (g) of diethyl sebacate necessary for dissolving NSAID (1 g)” value (“amount (g) … for dissolving NSAID (1 g)” below) [4]?
**A.** not less than 100 g

**Q.** And the diclofenac permeation amount [3]?
**A.** 8.8 μg/cm^2

**Q.** Which results are given for `CCc1cccc2c3c([nH]c12)C(CC)(CC(=O)O)OCC3` (stereo not shown) [etodolac, reference compound]?
**A.** amount (g) of diethyl sebacate necessary for dissolving NSAID (1 g) [4]: not more than 10 g; etodolac permeation amount [3]: 10.4 μg/cm^2

**Q.** For `CCc1ccc(C(=O)C(C)CN2CCCCC2)cc1.CCc1cccc2c3c([nH]c12)C(CC)(CC(=O)O)OCC3` (stereo not shown) [etodolac-eperisone salt], which “amount (g) of diethyl sebacate necessary for dissolving an eperisone salt corresponding to NSAID (1 g)” value (from here on “amount (g) … to NSAID (1 g)”) [4] is on record?
**A.** not more than 10 g

**Q.** And the etodolac permeation amount [3]?
**A.** 20.5 μg/cm^2

**Q.** Which etodolac permeation amount [3] does the source give for `CCc1cccc2c3c([nH]c12)C(CC)(CC(=O)O)OCC3.Cc1ccc(C(=O)C(C)CN2CCCCC2)cc1` (stereo not shown) [etodolac-tolperisone salt] here?
**A.** 22.3 μg/cm^2

**Q.** For `CC(C(=O)O)c1ccc(-c2ccccc2)c(F)c1` (stereo not shown) [flurbiprofen, reference compound], which “amount (g) … for dissolving NSAID (1 g)” value [4] is on record?
**A.** not more than 10 g

**Q.** And the flurbiprofen permeation amount [3]?
**A.** 20.2 μg/cm^2

**Q.** For `CC(C(=O)O)c1ccc(-c2ccccc2)c(F)c1.CC(O)CN(CC(C)O)CC(C)O` (stereo not shown) [flurbiprofen-TIPA salt], which flurbiprofen permeation amount [3] is on record?
**A.** 91.8 μg/cm^2

**Q.** With `CC(C(=O)O)c1ccc(-c2ccccc2)c(F)c1.CCc1ccc(C(=O)C(C)CN2CCCCC2)cc1` (stereo not shown) [flurbiprofen-eperisone salt] as the compound, how does the “amount (g) … to NSAID (1 g)” value [4] read?
**A.** not more than 10 g

**Q.** With `CC(C(=O)O)c1ccc(-c2ccccc2)c(F)c1.CCN(CC)CC(=O)Nc1c(C)cccc1C` (stereo not shown) [flurbiprofen-lidocain salt] as the compound, how does the flurbiprofen permeation amount [3] read?
**A.** 91.0 μg/cm^2

**Q.** Which flurbiprofen permeation amount [3] does the source give for `CC(C(=O)O)c1ccc(-c2ccccc2)c(F)c1.Cc1ccc(C(=O)C(C)CN2CCCCC2)cc1` (stereo not shown) [flurbiprofen-tolperisone salt] here?
**A.** 46.3 μg/cm^2

**Q.** For `CC(C(=O)O)c1ccc(-c2ccccc2)c(F)c1.COc1cccc(C2(O)CCCCC2CN(C)C)c1` (stereo not shown) [flurbiprofen-tramadol salt], which flurbiprofen permeation amount [3] is on record?
**A.** 78.1 μg/cm^2

**Q.** Which indomethacin permeation amount [3] does the source give for `CC(O)CN(CC(C)O)CC(C)O.COc1ccc2c(c1)c(CC(=O)O)c(C)n2C(=O)c1ccc(Cl)cc1` [indomethacin-TIPA salt] here?
**A.** 15.8 μg/cm^2

**Q.** Which “amount (g) … to NSAID (1 g)” value [4] does the source give for `CCc1ccc(C(=O)C(C)CN2CCCCC2)cc1.COc1ccc2c(c1)c(CC(=O)O)c(C)n2C(=O)c1ccc(Cl)cc1` [indomethacin-eperisone salt] here?
**A.** not more than 10 g

**Q.** For `COc1ccc2c(c1)c(CC(=O)O)c(C)n2C(=O)c1ccc(Cl)cc1.Cc1ccc(C(=O)C(C)CN2CCCCC2)cc1` [indomethacin-tolperisone salt], which indomethacin permeation amount [3] is on record?
**A.** 14.7 μg/cm^2

**Q.** Which indomethacin permeation amount [3] does the source give for `COc1ccc2c(c1)c(CC(=O)O)c(C)n2C(=O)c1ccc(Cl)cc1.COc1cccc(C2(O)CCCCC2CN(C)C)c1` [indomethacin-tramadol salt] here?
**A.** 9.8 μg/cm^2

**Q.** With `COc1ccc2c(c1)c(CC(=O)O)c(C)n2C(=O)c1ccc(Cl)cc1` [indomethacin] as the compound, how does the “dissolution in diethyl sebacate (50 g)” value [4] read?
**A.** not dissolved

**Q.** What about the “amount (g) … for dissolving NSAID (1 g)” value [4] of the same compound?
**A.** not less than 100 g

**Q.** What about the indomethacin permeation amount [3] of the same compound?
**A.** 6.9 μg/cm^2

**Q.** For `CC(C(=O)O)c1cccc(C(=O)c2ccccc2)c1` (stereo not shown) [ketoprofen, reference compound], which Ketoprofen permeation amount [3] is on record?
**A.** 36.1 μg/cm^2

**Q.** With `CC(C(=O)O)c1ccc(CC2CCCC2=O)cc1` (stereo not shown) [loxoprofen sodium salt, reference compound] as the compound, how does the loxoprofen permeation amount ([3]; sodium salt) read?
**A.** 27.1 μg/cm^2

**Q.** With `CC(C(=O)O)c1ccc(CC2CCCC2=O)cc1.CCCCN1CCCCC1C(=O)Nc1c(C)cccc1C` (stereo not shown) [loxoprofen-bupivacaine salt] as the compound, how does the “form/note: crystallization during long-term preservation” value [2] read?
**A.** partially

**Q.** Which “amount (g) … to NSAID (1 g)” value [4] does the source give for `CC(C(=O)O)c1ccc(CC2CCCC2=O)cc1.CCc1ccc(C(=O)C(C)CN2CCCCC2)cc1` (stereo not shown) [loxoprofen-eperisone salt] here?
**A.** not more than 10 g

**Q.** And the loxoprofen permeation amount [3]?
**A.** 91.2 μg/cm^2

**Q.** With `CC(C(=O)O)c1ccc(CC2CCCC2=O)cc1.CCN(CC)CC(=O)Nc1c(C)cccc1C` (stereo not shown) [loxoprofen-lidocain salt] as the compound, how does the loxoprofen permeation amount [3] read?
**A.** 103.4 μg/cm^2

**Q.** For `CC(C(=O)O)c1ccc(CC2CCCC2=O)cc1.Cc1ccc(C(=O)C(C)CN2CCCCC2)cc1` (stereo not shown) [loxoprofen-tolperisone salt], which loxoprofen permeation amount [3] is on record?
**A.** 82.3 μg/cm^2

**Q.** For `CC(C(=O)O)c1ccc(CC2CCCC2=O)cc1` (stereo not shown) [loxoprofen], which “dissolution in diethyl sebacate (50 g)” value [4] is on record?
**A.** not dissolved

**Q.** What about the “amount (g) … for dissolving NSAID (1 g)” value [4] of the same compound?
**A.** not less than 100 g

**Q.** And the loxoprofen permeation amount ([3]; listed as loxoprofen free acid)?
**A.** 49.5 μg/cm^2

**Q.** Which loxoprofen permeation amount [3] does the source give for loxoprofen-DIPA salt here?
**A.** 68.6 μg/cm^2
